Data: ChEMBL document CHEMBL5291721, “A preclinical secondary pharmacology resource illuminates target-adverse drug reaction associations of marketed drugs” (Nat Commun, 2023)
Values joined by “and” are separate entries in the source; they are usually repeats but may differ in a detail not shown here. Equal entries are not always repeated.

Key:
[1] = target: T1, Cholecystokinin receptor type A (Homo sapiens, UniProt P32238)
T1 sequence (P32238 whole entry): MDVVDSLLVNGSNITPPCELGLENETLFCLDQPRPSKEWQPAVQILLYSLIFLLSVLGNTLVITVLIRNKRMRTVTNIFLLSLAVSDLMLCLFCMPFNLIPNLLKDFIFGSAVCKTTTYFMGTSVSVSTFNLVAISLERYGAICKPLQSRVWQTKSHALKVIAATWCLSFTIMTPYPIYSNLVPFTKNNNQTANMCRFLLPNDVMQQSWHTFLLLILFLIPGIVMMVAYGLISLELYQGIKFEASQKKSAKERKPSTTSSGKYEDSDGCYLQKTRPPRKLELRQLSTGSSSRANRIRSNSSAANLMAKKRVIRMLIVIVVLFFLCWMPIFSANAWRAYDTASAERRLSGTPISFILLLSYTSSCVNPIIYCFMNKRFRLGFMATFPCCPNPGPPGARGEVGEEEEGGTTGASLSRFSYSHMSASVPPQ

[2] = target: Gamma-aminobutyric acid receptor subunit alpha-1 (Rattus norvegicus, UniProt P62813); assay type: functional
Melanocortin receptor 4 = Melanocortin receptor 4 (Homo sapiens, UniProt P32245)
Cannabinoid receptor 1 = Cannabinoid receptor 1 (Homo sapiens, UniProt P21554)
[3] = target: Beta-1 adrenergic receptor (Homo sapiens, UniProt P08588); assay type: functional
[4] = target: T2, Alpha-1A adrenergic receptor (Homo sapiens, UniProt P35348); assay type: functional, cell-based
T2 sequence (P35348 whole entry): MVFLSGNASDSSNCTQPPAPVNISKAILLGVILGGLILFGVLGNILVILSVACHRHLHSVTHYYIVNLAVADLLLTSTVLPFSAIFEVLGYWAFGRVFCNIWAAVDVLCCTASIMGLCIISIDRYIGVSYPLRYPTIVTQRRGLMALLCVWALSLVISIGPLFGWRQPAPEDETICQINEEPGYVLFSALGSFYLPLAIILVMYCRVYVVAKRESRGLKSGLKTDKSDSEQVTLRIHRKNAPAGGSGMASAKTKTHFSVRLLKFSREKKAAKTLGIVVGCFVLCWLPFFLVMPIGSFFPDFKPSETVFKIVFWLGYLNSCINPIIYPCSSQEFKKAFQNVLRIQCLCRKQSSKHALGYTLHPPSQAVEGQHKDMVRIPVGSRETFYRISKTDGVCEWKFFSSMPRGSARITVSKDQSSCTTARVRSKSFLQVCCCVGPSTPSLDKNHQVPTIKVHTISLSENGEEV

Adenosine receptor A1 = target: T3, Adenosine receptor A1 (Homo sapiens, UniProt P30542)
T3 sequence (P30542 whole entry): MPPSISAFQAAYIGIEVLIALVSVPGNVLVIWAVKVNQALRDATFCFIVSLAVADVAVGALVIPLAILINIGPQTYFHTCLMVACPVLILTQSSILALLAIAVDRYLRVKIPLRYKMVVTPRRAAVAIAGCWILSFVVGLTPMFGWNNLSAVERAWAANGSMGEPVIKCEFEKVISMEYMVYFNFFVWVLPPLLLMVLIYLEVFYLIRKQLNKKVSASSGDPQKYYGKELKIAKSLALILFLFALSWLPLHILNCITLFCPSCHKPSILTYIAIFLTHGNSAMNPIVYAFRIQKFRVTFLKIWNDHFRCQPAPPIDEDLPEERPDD

Adenosine receptor A3 = target: T4, Adenosine receptor A3 (Homo sapiens, UniProt P0DMS8)
T4 sequence (P0DMS8 whole entry): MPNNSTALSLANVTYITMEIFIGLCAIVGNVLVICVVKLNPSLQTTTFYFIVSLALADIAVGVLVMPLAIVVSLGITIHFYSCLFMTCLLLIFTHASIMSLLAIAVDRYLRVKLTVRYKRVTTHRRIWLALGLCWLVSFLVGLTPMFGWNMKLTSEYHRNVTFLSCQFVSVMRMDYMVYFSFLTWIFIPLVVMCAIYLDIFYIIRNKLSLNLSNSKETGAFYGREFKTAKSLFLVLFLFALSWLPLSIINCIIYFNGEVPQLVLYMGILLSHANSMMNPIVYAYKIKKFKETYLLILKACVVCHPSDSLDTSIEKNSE

[5] = target: Glutamate receptor ionotropic, NMDA 1 (Rattus norvegicus, UniProt P35439)
Mu-type opioid receptor = Mu-type opioid receptor (Homo sapiens, UniProt P35372)
[6] = target: T2, Alpha-1A adrenergic receptor
Vasopressin V1a receptor = Vasopressin V1a receptor (Homo sapiens, UniProt P37288)
Androgen receptor [7] = target: T5, Androgen receptor (Rattus norvegicus, UniProt P15207); assay type: functional
T5 sequence (P15207 whole entry): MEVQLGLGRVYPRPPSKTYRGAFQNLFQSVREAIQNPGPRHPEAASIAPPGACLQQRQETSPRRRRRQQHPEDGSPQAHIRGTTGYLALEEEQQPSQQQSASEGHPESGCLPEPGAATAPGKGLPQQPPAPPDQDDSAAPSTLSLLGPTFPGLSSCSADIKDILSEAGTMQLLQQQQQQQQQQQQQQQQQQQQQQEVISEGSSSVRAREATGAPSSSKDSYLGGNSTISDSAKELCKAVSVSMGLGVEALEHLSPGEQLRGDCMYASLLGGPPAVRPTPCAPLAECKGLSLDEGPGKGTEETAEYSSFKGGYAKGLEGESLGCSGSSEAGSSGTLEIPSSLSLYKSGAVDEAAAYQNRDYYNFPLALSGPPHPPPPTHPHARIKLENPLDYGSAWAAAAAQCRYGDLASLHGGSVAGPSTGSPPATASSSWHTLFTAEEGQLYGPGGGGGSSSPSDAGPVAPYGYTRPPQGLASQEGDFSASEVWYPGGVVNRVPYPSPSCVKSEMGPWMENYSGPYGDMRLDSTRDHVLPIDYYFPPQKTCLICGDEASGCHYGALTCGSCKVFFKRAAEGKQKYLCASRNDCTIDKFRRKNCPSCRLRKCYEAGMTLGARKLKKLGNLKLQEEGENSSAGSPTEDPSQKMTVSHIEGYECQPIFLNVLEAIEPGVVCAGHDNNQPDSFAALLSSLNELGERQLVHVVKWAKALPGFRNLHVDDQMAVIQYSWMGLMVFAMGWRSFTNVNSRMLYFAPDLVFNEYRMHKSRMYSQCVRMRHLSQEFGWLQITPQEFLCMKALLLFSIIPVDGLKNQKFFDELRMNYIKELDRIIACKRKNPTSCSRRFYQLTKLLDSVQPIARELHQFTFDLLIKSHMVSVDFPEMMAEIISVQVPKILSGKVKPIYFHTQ

Androgen receptor [8] = target: T5, Androgen receptor; assay type: functional; remark: listed apart in the source
Note: assay procedure not described here.

Sequence of Cannabinoid receptor 1 (P21554 whole entry): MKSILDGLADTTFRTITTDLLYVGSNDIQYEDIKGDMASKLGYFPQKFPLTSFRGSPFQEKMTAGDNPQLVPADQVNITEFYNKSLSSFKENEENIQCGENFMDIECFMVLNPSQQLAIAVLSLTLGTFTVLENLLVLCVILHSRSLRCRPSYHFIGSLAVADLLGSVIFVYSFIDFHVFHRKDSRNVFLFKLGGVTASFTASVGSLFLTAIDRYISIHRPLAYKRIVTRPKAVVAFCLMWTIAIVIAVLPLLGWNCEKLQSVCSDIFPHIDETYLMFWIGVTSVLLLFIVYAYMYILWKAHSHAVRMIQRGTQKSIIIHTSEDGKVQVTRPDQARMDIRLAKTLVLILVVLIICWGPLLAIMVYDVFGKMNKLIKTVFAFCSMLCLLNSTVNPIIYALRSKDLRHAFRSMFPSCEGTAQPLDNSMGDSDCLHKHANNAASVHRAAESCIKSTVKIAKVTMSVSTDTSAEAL
Sequence of Vasopressin V1a receptor (P37288 whole entry): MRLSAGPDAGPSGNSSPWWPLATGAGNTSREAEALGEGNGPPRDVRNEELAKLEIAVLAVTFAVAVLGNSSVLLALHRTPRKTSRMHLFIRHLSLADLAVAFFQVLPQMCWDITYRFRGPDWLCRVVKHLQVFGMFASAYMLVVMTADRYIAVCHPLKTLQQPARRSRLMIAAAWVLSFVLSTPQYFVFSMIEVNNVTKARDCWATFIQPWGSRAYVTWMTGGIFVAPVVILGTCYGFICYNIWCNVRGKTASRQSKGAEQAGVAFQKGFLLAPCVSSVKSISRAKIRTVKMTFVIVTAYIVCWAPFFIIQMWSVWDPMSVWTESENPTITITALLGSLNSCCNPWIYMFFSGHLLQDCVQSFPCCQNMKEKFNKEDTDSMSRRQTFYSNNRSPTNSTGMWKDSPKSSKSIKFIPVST
Sequence of Melanocortin receptor 4 (P32245 whole entry): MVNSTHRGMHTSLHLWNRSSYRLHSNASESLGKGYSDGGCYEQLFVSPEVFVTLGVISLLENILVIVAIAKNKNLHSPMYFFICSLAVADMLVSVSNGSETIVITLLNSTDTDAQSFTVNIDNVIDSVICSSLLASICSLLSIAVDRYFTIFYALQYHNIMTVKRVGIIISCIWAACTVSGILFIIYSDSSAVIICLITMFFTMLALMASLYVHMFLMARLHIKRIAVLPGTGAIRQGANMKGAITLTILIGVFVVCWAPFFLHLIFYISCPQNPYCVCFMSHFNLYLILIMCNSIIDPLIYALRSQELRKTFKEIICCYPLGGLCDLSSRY
Sequence of Mu-type opioid receptor (P35372 whole entry): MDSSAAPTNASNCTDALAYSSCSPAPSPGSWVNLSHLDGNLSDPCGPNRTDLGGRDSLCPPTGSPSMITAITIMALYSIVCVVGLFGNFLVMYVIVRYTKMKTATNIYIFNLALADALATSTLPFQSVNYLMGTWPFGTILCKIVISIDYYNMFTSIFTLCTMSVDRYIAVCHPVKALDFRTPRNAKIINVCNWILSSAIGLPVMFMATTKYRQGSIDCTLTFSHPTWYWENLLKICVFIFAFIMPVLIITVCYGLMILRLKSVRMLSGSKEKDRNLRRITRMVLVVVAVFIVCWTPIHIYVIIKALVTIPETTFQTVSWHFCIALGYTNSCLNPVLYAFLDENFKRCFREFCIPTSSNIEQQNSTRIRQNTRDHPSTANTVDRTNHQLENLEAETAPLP
Sequence of Gamma-aminobutyric acid receptor subunit alpha-1 (P62813 whole entry): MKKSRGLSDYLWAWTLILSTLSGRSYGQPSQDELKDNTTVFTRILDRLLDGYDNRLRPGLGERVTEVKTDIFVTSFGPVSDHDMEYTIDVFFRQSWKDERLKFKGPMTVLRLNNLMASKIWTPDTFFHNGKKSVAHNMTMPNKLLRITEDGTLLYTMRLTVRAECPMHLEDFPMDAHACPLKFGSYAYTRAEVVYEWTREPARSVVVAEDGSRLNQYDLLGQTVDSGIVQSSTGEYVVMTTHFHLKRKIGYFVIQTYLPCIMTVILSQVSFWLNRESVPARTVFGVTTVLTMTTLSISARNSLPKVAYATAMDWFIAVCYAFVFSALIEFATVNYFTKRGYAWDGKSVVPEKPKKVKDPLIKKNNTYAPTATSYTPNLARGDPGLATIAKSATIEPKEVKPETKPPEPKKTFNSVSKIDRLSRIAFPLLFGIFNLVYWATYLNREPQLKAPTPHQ
Sequence of Beta-1 adrenergic receptor (P08588 whole entry): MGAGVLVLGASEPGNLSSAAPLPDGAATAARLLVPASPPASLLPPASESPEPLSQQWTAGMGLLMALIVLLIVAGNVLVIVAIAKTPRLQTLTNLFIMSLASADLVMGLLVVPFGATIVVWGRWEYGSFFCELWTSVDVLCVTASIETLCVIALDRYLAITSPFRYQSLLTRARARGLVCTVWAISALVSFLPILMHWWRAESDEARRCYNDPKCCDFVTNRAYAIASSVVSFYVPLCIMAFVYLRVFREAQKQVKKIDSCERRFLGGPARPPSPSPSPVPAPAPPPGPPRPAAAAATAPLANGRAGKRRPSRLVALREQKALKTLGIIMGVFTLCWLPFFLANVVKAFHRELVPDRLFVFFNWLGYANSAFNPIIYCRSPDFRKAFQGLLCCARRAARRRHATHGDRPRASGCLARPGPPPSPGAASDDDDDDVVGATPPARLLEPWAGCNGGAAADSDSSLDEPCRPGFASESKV

Structure (SMILES): CC=CC(=O)N(CC)c1ccccc1C
- AC50 [1]: > 10 µM
- AC50 [2]: > 10 µM
- AC50 (Melanocortin receptor 4): > 10 µM
- AC50 (Cannabinoid receptor 1): > 10 µM
- AC50 [3]: > 10 µM
- AC50 [4]: > 30 µM
- AC50 (Adenosine receptor A1): > 10 µM
- AC50 (Adenosine receptor A3): > 10 µM
- AC50 [5]: > 10 µM
- AC50 (Mu-type opioid receptor): > 30 µM
- AC50 [6]: > 10 µM

Structure (SMILES): C=CCC1(CC(C)C)C(=O)NC(=O)NC1=O [BUTALBITAL]
- AC50 [1]: > 10 µM
- AC50 [2]: > 10 µM
- AC50 (Melanocortin receptor 4): > 10 µM
- AC50 (Cannabinoid receptor 1): > 10 µM
- AC50 [3]: > 10 µM
- AC50 [4]: > 30 µM
- AC50 (Adenosine receptor A1): > 10 µM
- AC50 (Adenosine receptor A3): > 10 µM
- AC50 (Vasopressin V1a receptor): > 10 µM
- AC50 [5]: > 10 µM
- AC50 (Mu-type opioid receptor): > 30 µM
- AC50 [6]: > 30 µM

Structure (SMILES): C#C[C@]1(O)CC[C@H]2[C@@H]3CCC4=Cc5oncc5C[C@]4(C)[C@H]3CC[C@@]21C [DANAZOL]
- AC50 [1]: > 10 µM
- AC50 [2]: > 10 µM
- AC50 (Melanocortin receptor 4): > 10 µM
- AC50 (Cannabinoid receptor 1): > 10 µM
- AC50 [3]: > 10 µM
- AC50 [4]: > 30 µM
- AC50 (Adenosine receptor A1): > 30 µM
- AC50 (Adenosine receptor A3): > 30 µM
- AC50 [5]: > 10 µM
- AC50 (Mu-type opioid receptor): > 30 µM
- AC50 [6]: > 10 µM

Structure (SMILES): CC1(C)O[C@@H]2C[C@H]3[C@@H]4CCC5=CC(=O)C=C[C@]5(C)[C@H]4[C@@H](O)C[C@]3(C)[C@]2(C(=O)CO)O1 [DESONIDE]
- AC50 [1]: > 10 µM
- AC50 [2]: > 10 µM
- AC50 (Melanocortin receptor 4): > 10 µM
- AC50 (Cannabinoid receptor 1): > 10 µM
- AC50 [3]: > 10 µM
- AC50 [4]: > 30 µM
- AC50 (Adenosine receptor A1): > 10 µM
- AC50 (Adenosine receptor A3): > 10 µM
- AC50 (Vasopressin V1a receptor): > 10 µM
- AC50 [5]: > 10 µM
- AC50 (Mu-type opioid receptor): > 30 µM
- AC50 [6]: > 10 µM

Structure (SMILES): Cn1c(=O)c2c(ncn2CC2OCCO2)n(C)c1=O [DOXOFYLLINE]
- AC50 [1]: > 30 µM
- AC50 [2]: > 30 µM
- AC50 [3]: > 30 µM
- AC50 [4]: > 30 µM
- AC50 (Adenosine receptor A1): > 30 µM
- AC50 (Androgen receptor [7]): > 30 µM
- AC50 (Adenosine receptor A3): > 30 µM
- AC50 (Androgen receptor [8]): > 30 µM
- AC50 [5]: > 30 µM

Structure (SMILES): CCCCc1ncc(/C=C(\Cc2cccs2)C(=O)O)n1Cc1ccc(C(=O)O)cc1 [EPROSARTAN]
- AC50 [1]: > 30 µM
- AC50 [2]: > 10 µM
- AC50 (Melanocortin receptor 4): > 10 µM
- AC50 (Cannabinoid receptor 1): > 10 µM
- AC50 [3]: > 10 µM
- AC50 [4]: > 30 µM
- AC50 (Adenosine receptor A1): > 10 µM
- AC50 (Adenosine receptor A3): > 10 µM
- AC50 (Vasopressin V1a receptor): > 30 µM
- AC50 [5]: > 10 µM
- AC50 (Mu-type opioid receptor): > 10 µM
- AC50 [6]: > 10 µM

Structure (SMILES): CCc1c(Cl)c(O)c(Cl)c(O)c1C(=O)O[C@H]1[C@H](O)[C@H](OC)[C@H](OC/C2=C\C=C\C[C@H](O)/C(C)=C/[C@H](CC)[C@@H](O[C@@H]3OC(C)(C)[C@@H](OC(=O)C(C)C)[C@H](O)[C@@H]3O)/C(C)=C/C(C)=C/C[C@@H]([C@@H](C)O)OC2=O)O[C@@H]1C [FIDAXOMICIN]
- AC50 [2]: > 10 µM
- AC50 (Melanocortin receptor 4): > 30 µM
- AC50 (Cannabinoid receptor 1): > 10 µM
- AC50 [3]: > 10 µM
- AC50 (Adenosine receptor A1): > 30 µM
- AC50 (Adenosine receptor A3): 17.1 µM and > 30 µM
- AC50 (Androgen receptor [8]): > 30 µM
- AC50 (Vasopressin V1a receptor): > 10 µM
- AC50 [5]: > 10 µM
- AC50 (Mu-type opioid receptor): > 10 µM
